In patent US20210177941A1, “COMPOSITIONS FOR CHANGING BODY COMPOSITION, METHODS OF USE, AND METHODS OF TREATMENT” (Board of Supervisors of Louisiana State University and …, priority 2014, published 2021):
Ends that are not written are not given here.

Columns and labels:
[1] = test system: human myoblast; assay: human myoblast treated 24 h with pramlintide, biomarkers; assay type: cell-based; conditions: 24 h pramlintide
Description: Although not intending to be bound by theory, we hypothesize the amylin pathway has a role in the regulation of muscle mass in mammals and the use of pramlintide will result in improved body composition and increase muscle mass in healthy humans by lowering the production of myostatin and increasing protein synthesis via mTOR activation.

[2] = 7-week placebo controlled study in young, healthy BL-male mice; assay type: in vivo; conditions: for lean body mass (LBM): all treatment-arms (Gr 2-7); for bodyweight from baseline and relative to placebo control: pramlintide 30 and 60 mg/kg (Gr 3, 4), Salbutamol 24 mg (Gr 5), combinations (Gr 6, 7)
Method: In a recent pharmacology assessment in young, healthy BL-male mice, we completed a 7-week placebo controlled (Gr 1) study with treatment-arms that included the use of pramlintide alone at low (Gr 2. 15 mg/kg); mid (Gr 3. 30 mg/kg) and high (Gr 4. 60 mg/kg) or Salbutamol alone (Gr 5. 24 mg) or combined with Pramlintide (Gr 6. 15 mg/kg +12 mg of Salbutamol; Gr 7. 30 mg/kg +12 mg of Salbutamol).

[3] = test system: myostatin secretion; assay: myostatin secretion into RMS13 myoblast culture media; assay type: cell-based, human; conditions: pramlintide 1 mm (p=0.061); P/A 1 mm/0.25 mm (p<0.05, greatest suppression)
Description: Myostatin's main sites of actions are muscle and bone in a catabolic fashion. Both IGF1 and amylin have roles in regulating osteoblast-bone proliferation (Cornish et al., 2004; Cornish and Naot, 2002) and muscle mass. […] Although not intending to be bound by theory, we hypothesize that amylin alone and in combination with albuterol is able to directly suppress myostatin secretion in myoblasts.

[4] = in vivo; cited from earlier work
[5] = test system: mammalian target of rapamycin (mTOR); assay: mTOR activation in human myoblast RMS13 cells; assay type: cell-based; conditions: pramlintide alone at 1 and 5 mm, 24 h, both p<0.05
Description: We first examined the association between a pramlintide and albuterol formulation (single and combination dosing) on the activity of the mammalian target of rapamycin (mTOR) in a human myoblast cell model derived from RMS13 cells (purchased from ATCC, Manassas, Va., USA). mTOR is a highly conserved kinase that exists in two functional complexes, TOR complex 1 (TORC1) and TOR complex 2 (TORC2), that are conserved from yeast to mammals. Given its high conservation across species, mTOR serves as a key biomarker for protein synthesis. mTOR (TORC1 and TORC 2) is a master kinase that is crucial for cell growth and is a chief enzyme in protein synthesis (Otulakowski et al., 2007). Determining optimal ratios and concentrations of each drug (in single or combination) was an important first step to guide the mechanism of action biomarker studies. This initial study was undertaken for 24 and 48 hours; only the 24-hour results are shown (n=6 each group).

[6] = test system: IGF1R mRNA; assay: IGF1R mRNA expression in RMS13 cells; assay type: cell-based, human; conditions: 24 h; pramlintide 1 mm, albuterol 0.25 mm, P/A 1 mm/0.25 μm
Method: (§1) Working in concert with UPS signaling is the myostatin pathway. By binding to ActRIIB, myostatin activates type-1 activin receptor serine kinases, ALK4 or ALK5, which phosphorylate Smads 2 and −3 (key biomarkers) to exert changes in gene transcription (above figure). […] To measure pathways regulating muscle atrophy and protein syntheses, the following key mRNA biomarkers were assayed: 1) Atrophy: MSTN, Atrogin-1, MuRF1, FoxO1, FoxO3, ALK4, Smad 1, Smad 3; 2) Anabolic: IGF1R, PGC1a, PGC1b, mitochondrial-FAM.
(§2) All RMS13 cells were treated for 24 hours with single or combination doses (n=10 each group). […] However, there was a strong trend for down regulation in P/A; […] treated cells for MuRF1 (34±7 vs. 22±5, p=0.068; PBS control vs. P/A; 1 mm/0.25 μm respectively) and Smad3 (91 ±9 vs. 73±9, p=0.055; PBS control vs. P/A; 1 mm/0.25 μm respectively).

[7] = test system: Atrogin-1, MuRF1, FoxO1, ALK4, Smad 1, Smad 3, PGC1b and TFAM mRNA; assay: myoblast transcriptome biomarker panel in RMS13 cells; assay type: cell-based, human; conditions: 24 h; albuterol 0.25 mm, pramlintide 1 mm, P/A 1 mm/0.25 μm
Method: as §1, §2

[8] = In Vivo Study 1: body weight and body composition by NMR, 8 weeks; set-up: species or system B6 mice; conditions: for muscle gain and body fat reduction: monotherapy: pramlintide 30 and 60 mg/kg/day, albuterol 24 mg/day
Method: Based on our in vitro experiments, we hypothesized that we could synergize muscle gain and improved biology with a combination of low doses of amylin (or agonist) and albuterol (or agonist). This study determined the effect of daily peripheral administration of pramlintide for 2-months on body weight, body composition and food intake in healthy, elderly mice.
Murine subjects were divided into seven treatment groups (total n=12): Group 1) SC […] vehicle (PBS); Group 2) SC 15 mg/kg/mouse of pramlintide; Group 3) SC 30 mg/kg/mouse of pramlintide; Group 4) SC 60 mg/kg/mouse of pramlintide; […]); Group 6) Albuterol 0.250 mg/kg. […]
The mice were housed in single cages with a 12:12 light cycle, and allowed ad libitum access to food and water throughout the experiment. On day-1 food was weighed and an amount sufficient to last weekly intervals was provided. For the first two-weeks, food intake and body weight were monitored daily and thereafter biweekly for the remainder of the experiment. Body composition by NMR-spectroscopy was the primary endpoint, measured at Day-1 and at the end of the protocol (8-weeks). At Day-5, the mice were randomized to treatment and control groups, such that each group had the same mean body weight. Mice were allowed to acclimate for 5-days to being the sole mouse in the cage. Each day mice were dosed 1 hour after lights on, and the 2nd dosing two hours prior to lights out when mice initiate feeding. Pramlintide was taken directly from the FDA-approved Symlin drug (pramlintide acetate) obtained through the Pennington Biomedical Research Center (PBRC) pharmacy. Final injection volumes were […] for vehicle or drugs. Symlin was supplied as a sterile drug at 0.6 mg/ml. All doses were adjusted according to this concentration.
Food intake in grams was measured manually each 24 hours. Body Composition was determined via NMR using a Bruker mini-spec system designed for rat or mouse. Animals were transported in microisolater covered cages to the designated room containing the NMR. […]

[9] = test system: PGC1a mRNA; assay: PGC1a mRNA expression in RMS13 cells; assay type: cell-based, human; conditions: 24 h; pramlintide 1 mm, albuterol 0.25 mm, P/A 1 mm/0.25 μm
Method: as §1, §2

[10] = test system: FoxO3 mRNA; assay: FoxO3 mRNA expression in RMS13 cells; assay type: cell-based, human; conditions: 24 h; pramlintide 1 mm, albuterol 0.25 mm, P/A 1 mm/0.25 μm
Method: as §1, §2

[11] = test system: myostatin mRNA; assay: myostatin mRNA expression in RMS13 cells; assay type: cell-based, human
Method: as §1, §2
Pramlintide is chiefly used as an adjunct […] in type 1 and type 2 diabetes to help manage glycemia. The action of the two hormones complements one another to better control glucose metabolism and energy balance. We investigated whether pramlintide with or without insulin could modulate myostatin (key biomarker) mRNA. […] This negative result provides important rationale for both preclinical and clinical study designs (see below). Amylin is thought to function as a neuroendocrine hormone (Young, 1997) and has been shown over many decades to have an effect of lowering food intake. When given intracerebroventricularly (icv), amyl in reduces food intake and body weight in rodents in a dose-dependent manner (Rushing et al., 2001). […] Amylin is thought to regulate energy balance by inhibiting postprandial glucagon secretion and slowing the rate of nutrient delivery to the small intestine via an effect on gastric emptying. The rate of gastric emptying also plays a major role in blood glucose homeostasis in normal subjects by controlling the delivery of carbohydrate to the small intestine and the regulation of body weight (Reda et al., 2002). It has been proposed that amylin's effect on gastric emptying may be exerted via a central mechanism involving specific binding sites in the area postrema of the brain stem (Cline et al., 2008), and that the effect is mediated by the vagus nerve rather than a direct action on the stomach and digestion (D'Este et al., 1995; Maev and Dicheva, 2003). We have previously shown that the use of modified-pharmaceutical grade cellulose is able to dramatically slow the rate of gastric emptying and improve the lean-to-fat ratio in mice (Islam et al., 2012).
Calcitonin can be used therapeutically for the treatment of hypercalcemia or osteoporosis. Both calcitonin and amylin bind the same trimetric-calcitonin-ramp-receptor. An increased incidence of pituitary adenomas has been reported in rats given synthetic salmon calcitonin for 1 year. Calcitonin may be used diagnostically as a tumor marker for medullary thyroid cancer; also, elevated levels after surgery may indicate recurrence. Calcitonin may even be assayed in biopsy samples from suspicious lesions (e.g., lymph nodes that are swollen) to establish whether they are a metastasis of the original cancer (Bruera and Fainsinger, 1997; Busquets et al., 2012b). We next examined the dose-dependence relationship between the concentration of calcitonin and myostatin mRNA expression.

[12] = 24 h, pramlintide 1 mm, albuterol 0.25 mm, P/A 1 mm/0.25 μm
[13] = calcitonin dose-dependence, pramlintide 5 mm, p<0.05

| Molecule | myostatin and FoxO-1/-3 mRNA [1] | pro-anabolic targets (PGC1a, calcineurin mRNA and AkT and mTOR-activity) [1] | lean body mass (LBM) [2] | bodyweight from baseline and relative to placebo control [2] | myostatin secretion into myoblast culture media [3] | T-1/2-life [4] | mTOR activation [5] | IGF1R mRNA expression [6] | Atrogin-1, MuRF1, FoxO1, ALK4, Smad 1, Smad 3, PGC1b and TFAM mRNA [7] | muscle gain and body fat reduction [8] | drop in body weight within the first week ([8]; pramlintide 60 mg/kg/day (Group 4)) | PGC1a mRNA expression [9] | FoxO3 mRNA expression [10] | myostatin mRNA expression [11, 12] | myostatin mRNA expression [11, 13] | myostatin mRNA, pramlintide with or without insulin ([11]; co-incubation of insulin with pramlintide) |
| --- | --- | --- | --- | --- | --- | --- | --- | --- | --- | --- | --- | --- | --- | --- | --- | --- |
| pramlintide acetate | down regulation of myostatin | elevation of pro-anabolic targets | significantly increased | significant increases in bodyweight | lowered myostatin secretion | ~45 min | induced mTOR activation | up regulated | no change | Statistical improvements in muscle gain and body fat reduction | −5% | up regulated | significantly lowered | significantly lowered | able to lower myostatin mRNA |  |
| CC(C)(C)NCC(O)c1ccc(O)c(CO)c1 (stereo not shown) [albuterol] |  |  | significantly increased | significant increases in bodyweight |  |  |  | up regulated | no change | Statistical improvements in muscle gain and body fat reduction |  | up regulated | down regulated | no effect |  |  |
| insulin |  |  |  |  |  |  |  |  |  |  |  |  |  |  |  | no additive benefit |
| calcitonin (CGNLSTCMLGTYTQDFNKFHTFPQTAIGVGAP; ends and bridges not checked; cysteine pairing not given here; UniProt P01258 85-116, looked up) |  |  |  |  |  |  |  |  |  |  |  |  |  |  | did not modulate myostatin mRNA |  |
